Experimental data as given in patent US9840513B2 (AbbVie S.à.r.l., priority 2015, dated 2017).

Molecular target: T1, F508delCFTR cell surface expression in CFBE41o-F508delCFTR-HRP cells (Homo sapiens, UniProt P13569, DEL508-508)
T1 construct: fused on or other part: Horseradish peroxidase (HRP) reporter inserted in the fourth exofacial (extracellular) loop of CFTR; expression is doxycycline-inducible
Experiment: Cell Surface Expression-Horse Radish Peroxidase (CSE-HRP) Assay
Format: cell-based
Details: for EC50: CFBE41o-F508delCFTR-HRP cells, 18-24 hours at 33° C., 8-point curve, highest concentration 20 μM; for Maximum % activity (%): maximum at any tested concentration, normalized to on-plate positive control (3 μM)
Summary of the method: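 Correctors incubated 18-24 h at 33 °C on doxycycline-induced (0.5 μg/mL, 72 h) CFBE41o-F508delCFTR-HRP cells, 3-fold series from 20 μM. After DPBS washes, luminol luminescence read; activity expressed relative to DMSO and a 3 μM positive control, EC50 fitted from triplicate plates.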

T1 sequence (P13569 with tags, fused parts or gaps DEL508-508 limits assumed): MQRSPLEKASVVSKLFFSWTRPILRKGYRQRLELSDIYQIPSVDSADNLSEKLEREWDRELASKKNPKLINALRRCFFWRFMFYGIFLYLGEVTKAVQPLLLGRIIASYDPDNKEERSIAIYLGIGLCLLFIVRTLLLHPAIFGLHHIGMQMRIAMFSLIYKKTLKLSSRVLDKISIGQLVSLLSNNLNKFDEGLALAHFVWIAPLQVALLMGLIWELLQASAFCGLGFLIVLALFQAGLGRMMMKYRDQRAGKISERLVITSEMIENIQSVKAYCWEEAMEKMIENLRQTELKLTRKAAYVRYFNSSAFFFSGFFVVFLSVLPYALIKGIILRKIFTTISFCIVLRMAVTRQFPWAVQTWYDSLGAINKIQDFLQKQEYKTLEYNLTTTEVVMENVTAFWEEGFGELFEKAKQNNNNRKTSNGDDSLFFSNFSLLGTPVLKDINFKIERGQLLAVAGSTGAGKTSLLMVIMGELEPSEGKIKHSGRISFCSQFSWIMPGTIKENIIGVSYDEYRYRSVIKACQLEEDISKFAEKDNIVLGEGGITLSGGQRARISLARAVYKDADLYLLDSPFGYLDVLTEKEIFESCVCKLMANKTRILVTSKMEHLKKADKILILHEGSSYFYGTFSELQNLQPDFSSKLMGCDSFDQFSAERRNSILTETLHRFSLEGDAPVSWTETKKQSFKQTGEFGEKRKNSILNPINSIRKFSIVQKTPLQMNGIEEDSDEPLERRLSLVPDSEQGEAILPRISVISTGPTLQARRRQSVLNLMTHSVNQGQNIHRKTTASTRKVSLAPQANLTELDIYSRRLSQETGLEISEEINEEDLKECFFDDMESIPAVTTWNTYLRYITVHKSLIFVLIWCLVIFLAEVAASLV
T1 sequence (P13569 919-1480 limits assumed, stated change not applied): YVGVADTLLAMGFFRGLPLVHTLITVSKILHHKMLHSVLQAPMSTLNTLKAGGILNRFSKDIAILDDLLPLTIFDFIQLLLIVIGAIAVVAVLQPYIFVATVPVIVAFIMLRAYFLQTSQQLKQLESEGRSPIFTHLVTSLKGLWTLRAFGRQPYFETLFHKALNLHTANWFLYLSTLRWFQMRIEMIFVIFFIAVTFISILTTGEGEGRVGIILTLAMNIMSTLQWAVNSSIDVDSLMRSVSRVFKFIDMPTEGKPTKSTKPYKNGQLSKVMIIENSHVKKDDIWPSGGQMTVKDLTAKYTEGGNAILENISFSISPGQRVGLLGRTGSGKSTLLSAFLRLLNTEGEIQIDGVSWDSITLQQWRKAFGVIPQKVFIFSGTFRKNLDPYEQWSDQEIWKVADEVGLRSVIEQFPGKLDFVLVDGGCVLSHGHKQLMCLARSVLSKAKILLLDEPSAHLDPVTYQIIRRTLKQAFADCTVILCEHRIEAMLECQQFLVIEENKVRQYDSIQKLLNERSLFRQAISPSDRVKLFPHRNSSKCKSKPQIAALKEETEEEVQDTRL

Row | SMILES | EC50 [µM] | Maximum % activity (%)
1 | C[C@]1(C(=O)N[C@H]2C[C@@H]([C@H]3CC[C@H](C(=O)O)CC3)Oc3cc(OC(F)F)ccc32)COc2cc3c(cc21)OC(F)(F)O3 [Example 163, trans-4-[(2S,4S)-7-(difluoromethoxy)-4-{[(7R)-2,2-difluoro-7-methyl-6,7-dihydro-2H-furo[2,3-f][1,3]benzodioxole-7-carbonyl]amino}-3,4-dihydro-2H-1-benzopyran-2-yl]cyclohexane-1-carboxylic acid] | 0.81 | 75
2 | CCOC(=O)C1([C@H]2C[C@@H](NC(=O)[C@@]3(C)COc4cc5c(cc43)OC(F)(F)O5)c3ccc(OC(F)(F)F)cc3O2)CC1 [Example 164, ethyl 1-[(2R,4R)-4-{[(7R)-2,2-difluoro-7-methyl-6,7-dihydro-2H-furo[2,3-f][1,3]benzodioxole-7-carbonyl]amino}-7-(trifluoromethoxy)-3,4-dihydro-2H-1-benzopyran-2-yl]cyclopropane-1-carboxylate] | 0.106 | 122
3 | C[C@@]1(C(=O)N[C@@H]2C[C@H]([C@H]3CC[C@H](C(=O)O)CC3)Oc3cc(OC(F)(F)F)ccc32)CCc2cc3c(cc21)OC(F)(F)O3 [Example 169, trans-4-[(2R,4R)-4-{[(5R)-2,2-difluoro-5-methyl-6,7-dihydro-2H,5H-indeno[5,6-d][1,3]dioxole-5-carbonyl]amino}-7-(trifluoromethoxy)-3,4-dihydro-2H-1-benzopyran-2-yl]cyclohexane-1-carboxylic acid] | 1.26 | 107
4 | COc1ccc2c(c1)O[C@@H](c1ccc(Br)nc1)C[C@H]2NC(=O)[C@@]1(C)COc2cc3c(cc21)OC(F)(F)O3 [Example 176, (7R)—N-[(2R,4R)-2-(6-bromopyridin-3-yl)-7-methoxy-3,4-dihydro-2H-1-benzopyran-4-yl]-2,2-difluoro-7-methyl-6,7-dihydro-2H-furo[2,3-f][1,3]benzodioxole-7-carboxamide] | 0.27 | 118
5 | COc1ccc2c(c1)O[C@@H](c1ccc(C(C)=O)cn1)C[C@H]2NC(=O)[C@@]1(C)COc2cc3c(cc21)OC(F)(F)O3 [Example 180, (7R)—N-[(2R,4R)-2-(5-acetylpyridin-2-yl)-7-methoxy-3,4-dihydro-2H-1-benzopyran-4-yl]-2,2-difluoro-7-methyl-6,7-dihydro-2H-furo[2,3-f][1,3]benzodioxole-7-carboxamide] | 0.02 | 124
6 | C[C@]1(C(=O)N[C@H]2C[C@@H](C3CCN(CC(=O)O)CC3)Oc3cc(OC(F)(F)F)ccc32)COc2cc3c(cc21)OC(F)(F)O3 [Example 184, {4-[(2S,4S)-4-{[(7R)-2,2-difluoro-7-methyl-6,7-dihydro-2H-furo[2,3-f][1,3]benzodioxole-7-carbonyl]amino}-7-(trifluoromethoxy)-3,4-dihydro-2H-1-benzopyran-2-yl]piperidin-1-yl}acetic acid] | > 20 | 12
7 | C[C@]1(C(=O)N[C@H]2C[C@@H](C3CCNCC3)Oc3cc(OC(F)(F)F)ccc32)COc2cc3c(cc21)OC(F)(F)O3 [Example 185, (7R)-2,2-difluoro-7-methyl-N-[(2S,4S)-2-(piperidin-4-yl)-7-(trifluoromethoxy)-3,4-dihydro-2H-1-benzopyran-4-yl]-6,7-dihydro-2H-furo[2,3-f][1,3]benzodioxole-7-carboxamide] | 3.35 | 31
8 | C[C@]1(C(=O)N[C@@H]2C[C@H](C3CCN(CC(=O)O)CC3)Oc3cc(OC(F)(F)F)ccc32)COc2cc3c(cc21)OC(F)(F)O3 [Example 187, {4-[(2R,4R)-4-{[(7R)-2,2-difluoro-7-methyl-6,7-dihydro-2H-furo[2,3-f][1,3]benzodioxole-7-carbonyl]amino}-7-(trifluoromethoxy)-3,4-dihydro-2H-1-benzopyran-2-yl]piperidin-1-yl}acetic acid] | 2.54 | 129

Second part, the compound after the results:

Row | EC50 [µM] | Maximum % activity (%) | SMILES
9 | 2.64 | 85 | CCOC(=O)C1([C@@H]2C[C@H](NC(=O)[C@@]3(C)COc4cc5c(cc43)OC(F)(F)O5)c3ccc(OC(F)(F)F)cc3O2)CC1 [Example 165, ethyl 1-[(2S,4S)-4-{[(7R)-2,2-difluoro-7-methyl-6,7-dihydro-2H-furo[2,3-f][1,3]benzodioxole-7-carbonyl]amino}-7-(trifluoromethoxy)-3,4-dihydro-2H-1-benzopyran-2-yl]cyclopropane-1-carboxylate]
10 | 1.26 | 65 | C[C@]1(C(=O)Nc2cc3cc(C4(CO)CCOCC4)n(C[C@@H](O)CO)c3cc2F)COc2cc3c(cc21)OC(F)(F)O3 [Example 170, (7R)—N-{1-[(2R)-2,3-dihydroxypropyl]-6-fluoro-2-[4-(hydroxymethyl)oxan-4-yl]-1H-indol-5-yl}-2,2-difluoro-7-methyl-6,7-dihydro-2H-furo[2,3-f][1,3]benzodioxole-7-carboxamide]
11 | 0.09 | 132 | COc1ccc2c(c1)O[C@@H](c1cnc(CO)cn1)C[C@H]2NC(=O)[C@@]1(C)COc2cc3c(cc21)OC(F)(F)O3 [Example 173, (7R)-2,2-difluoro-N-{(2R,4R)-2-[5-(hydroxymethyl)pyrazin-2-yl]-7-methoxy-3,4-dihydro-2H-1-benzopyran-4-yl}-7-methyl-6,7-dihydro-2H-furo[2,3-f][1,3]benzodioxole-7-carboxamide]
12 | 0.03 | 129 | COc1ccc2c(c1)O[C@@H](c1ccc(C(C)(C)O)cn1)C[C@H]2NC(=O)[C@@]1(C)COc2cc3c(cc21)OC(F)(F)O3 [Example 181, (7R)-2,2-difluoro-N-{(2R,4R)-2-[5-(2-hydroxypropan-2-yl)pyridin-2-yl]-7-methoxy-3,4-dihydro-2H-1-benzopyran-4-yl}-7-methyl-6,7-dihydro-2H-furo[2,3-f][1,3]benzodioxole-7-carboxamide]
13 | 1.68 | 195 | C[C@]1(C(=O)N[C@@H]2C[C@H](C3CCNCC3)Oc3cc(OC(F)(F)F)ccc32)COc2cc3c(cc21)OC(F)(F)O3 [Example 182, (7R)-2,2-difluoro-7-methyl-N-[(2R,4R)-2-(piperidin-4-yl)-7-(trifluoromethoxy)-3,4-dihydro-2H-1-benzopyran-4-yl]-6,7-dihydro-2H-furo[2,3-f][1,3]benzodioxole-7-carboxamide]
14 | 2.22 | 60 | CC(C)(C)OC(=O)CN1CCC([C@@H]2C[C@H](NC(=O)[C@@]3(C)COc4cc5c(cc43)OC(F)(F)O5)c3ccc(OC(F)(F)F)cc3O2)CC1 [Example 183, tert-butyl {4-[(2S,4S)-4-{[(7R)-2,2-difluoro-7-methyl-6,7-dihydro-2H-furo[2,3-f][1,3]benzodioxole-7-carbonyl]amino}-7-(trifluoromethoxy)-3,4-dihydro-2H-1-benzopyran-2-yl]piperidin-1-yl}acetate]
15 | 0.67 | 189 | CC(C)(C)OC(=O)CN1CCC([C@H]2C[C@@H](NC(=O)[C@@]3(C)COc4cc5c(cc43)OC(F)(F)O5)c3ccc(OC(F)(F)F)cc3O2)CC1 [Example 186, tert-butyl {4-[(2R,4R)-4-{[(7R)-2,2-difluoro-7-methyl-6,7-dihydro-2H-furo[2,3-f][1,3]benzodioxole-7-carbonyl]amino}-7-(trifluoromethoxy)-3,4-dihydro-2H-1-benzopyran-2-yl]piperidin-1-yl}acetate]
